The target of this test is T1, Ba/F3-Tel-KDR cells (Homo sapiens, UniProt P35968).
T1 construct: fused on or other part: N-terminal oligomerising part of TEL (ETV6) fused to the tyrosine kinase domain of KDR; P41212 (Transcription factor ETV6)
T1 sequence (P35968 whole entry, change not shown, the tested form may be a part): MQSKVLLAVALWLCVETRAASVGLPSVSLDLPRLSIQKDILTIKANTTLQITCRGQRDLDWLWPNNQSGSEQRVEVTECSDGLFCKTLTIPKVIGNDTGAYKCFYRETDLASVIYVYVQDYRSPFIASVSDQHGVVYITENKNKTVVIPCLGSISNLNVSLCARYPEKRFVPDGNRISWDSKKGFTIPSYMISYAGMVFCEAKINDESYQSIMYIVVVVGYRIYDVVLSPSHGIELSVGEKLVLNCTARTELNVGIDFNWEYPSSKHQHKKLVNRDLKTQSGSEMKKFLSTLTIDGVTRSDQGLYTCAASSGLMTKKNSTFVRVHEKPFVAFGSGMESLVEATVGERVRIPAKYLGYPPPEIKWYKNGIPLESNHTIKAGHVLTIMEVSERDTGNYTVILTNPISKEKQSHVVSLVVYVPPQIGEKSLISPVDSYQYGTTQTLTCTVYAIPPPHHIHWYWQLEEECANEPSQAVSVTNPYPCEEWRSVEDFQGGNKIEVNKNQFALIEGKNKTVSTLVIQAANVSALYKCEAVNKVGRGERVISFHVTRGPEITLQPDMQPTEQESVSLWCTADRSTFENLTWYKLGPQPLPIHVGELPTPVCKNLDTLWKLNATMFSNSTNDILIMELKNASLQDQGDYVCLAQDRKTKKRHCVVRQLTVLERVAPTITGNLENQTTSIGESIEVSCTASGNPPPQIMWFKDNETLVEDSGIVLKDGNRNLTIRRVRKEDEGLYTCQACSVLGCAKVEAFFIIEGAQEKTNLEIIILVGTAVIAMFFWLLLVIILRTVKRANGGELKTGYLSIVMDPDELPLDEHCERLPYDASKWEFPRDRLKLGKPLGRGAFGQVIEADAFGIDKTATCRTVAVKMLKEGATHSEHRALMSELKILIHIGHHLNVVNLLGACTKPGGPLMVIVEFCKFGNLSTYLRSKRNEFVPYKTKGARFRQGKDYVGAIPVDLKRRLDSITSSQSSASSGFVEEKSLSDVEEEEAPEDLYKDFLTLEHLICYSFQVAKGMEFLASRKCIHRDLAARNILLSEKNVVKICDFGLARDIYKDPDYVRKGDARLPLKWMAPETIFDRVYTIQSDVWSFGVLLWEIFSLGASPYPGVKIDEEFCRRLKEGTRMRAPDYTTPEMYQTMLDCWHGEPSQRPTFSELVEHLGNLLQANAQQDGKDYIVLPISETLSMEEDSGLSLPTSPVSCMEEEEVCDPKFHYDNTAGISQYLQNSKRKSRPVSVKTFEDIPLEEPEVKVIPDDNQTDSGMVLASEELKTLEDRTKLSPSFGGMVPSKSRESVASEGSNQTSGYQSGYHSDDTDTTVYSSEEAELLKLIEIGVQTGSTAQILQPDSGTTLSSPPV
Description: Ba/F3-Tel-KDR cell viability inhibition assay (CellTiter-Glo). Format: cell-based. The settings on record: 48 hour incubation, read-out: IC50 (the source's name). The text has this: This assay is a cell-based assay to measure the compound-mediated suppression of Ba/F3 cell proliferation and viability using the Luciferase bioluminescent assay commercially known as CellTiter-Glo™. In this case, a specifically modified cell line, Ba/F3-Tel-KDR is used. These cells are engineered such that intact signaling through the tyrosine kinase domain of KDR is critical for their survival. Inhibition of KDR signaling results in cell death which is quantitated using a cell viability assay. This is a homogeneous bioluminescent assay that yields a rapid, simple and sensitive determination of the number of viable cells in culture by generation of a luminescent signal proportional to the amount of ATP present in cells. KDR inhibitor compound dilutions are incubated with Ba/F3-Tel-KDR cells over a 48 hour period and the resulting cell viability is measured with a suitable luminometer.
This assay is performed in Ba/F3-Tel-KDR cells. Cells are cultured at 37° C. […] Medium is changed the day before the experiment. On Day 1, cells are plated into white solid bottom 384-well plates at 5000 cells/well in 25 μl culture medium. A ten-point dose response curve is prepared as follows: compounds are first serially diluted 3-fold in 100% DMSO, starting from 10 mM. […] 5 μl of diluted compound is added to cell plates with 25 μl culture medium. […] The final concentration of DMSO is 0.1%. Wells without or with cells plus 0.1% DMSO serve as controls. On Day 3, Lyophilized CellTiter-Glo buffer and substrate and the cell plates are first equilibrated to room temperature. Substrate is reconstituted in buffer and 30 μl reconstituted substrate is added to each well. After incubation for 10 minutes at room temperature, plates are read in a luminometer. Compounds are tested in a 10-point dose response and each concentration is run in triplicate on a given plate. Each plate is run in duplicate.
As for `CC(C)CC(=O)N1Cc2ncnc(Oc3ccc4c(ccn4C(=O)Nc4cc(C5(C(F)(F)F)CC5)on4)c3)c2C[C@@H]1C` [Example 135-E], the GI50 is < 1 nM.
In the case of `O=C(Nc1cccc(C(F)(F)F)c1)n1ccc2cc(Oc3ccnc(CO)c3)ccc21` [Example 25-D, 5-(2-Hydroxymethyl-pyridin-4-yloxy)-indole-1-carboxylic acid (3-trifluoromethylphenyl)-amide], the GI50 worked out at 3 nM.
Turning to `C[C@H]1Cc2c(ncnc2Oc2ccc3c(ccn3C(=O)Nc3cc(C4(C)CC4)n[nH]3)c2F)CN1` [Example 54-H], the GI50 is 1 nM.
`CC(C)Cc1cc(NC(=O)n2ccc3cc(Oc4ncnc5c4CNC5)ccc32)no1` [Example 57-N, 5-(6,7-dihydro-5H-pyrrolo[3,4-d]pyrimidin-4-yloxy)-indole-1-carboxylic acid (5-isobutyl-isoxazol-3-yl)-amide]: the GI50 came to 91 nM.
Consider `O=C(Nc1ccc(F)c(C(F)(F)F)c1)n1ccc2cc(Oc3cc(CNC4CC4)ncn3)ccc21` [Example 19-Y], for which the GI50 amounted to 23 nM.
On to `CC(=O)N1Cc2ncnc(Oc3ccc4c(ccn4C(=O)Nc4cc(C5(C)CC5)on4)c3)c2C1` [Example 135-AS], for which the GI50 amounted to 10 nM.
Take `CS(=O)(=O)Cc1cc(Oc2ccc3c(ccn3C(=O)Nc3ccc(F)c(C(F)(F)F)c3)c2)ncn1` [Example 86-A, N-(4-fluoro-3-(trifluoromethyl)phenyl)-5-(6-(methylsulfonylmethyl)pyrimidin-4-yloxy)-1H-indole-1-carboxamide]: the GI50 is < 1 nM.
`O=C(Nc1ccc(F)c(C(F)(F)F)c1)n1ccc2cc(Oc3cc(Cn4ncnn4)ncn3)ccc21` [Example 27-A]: the GI50 came out at 5 nM.
Consider `Cc1nnn(Cc2cc(Oc3ccc4c(ccn4C(=O)Nc4ccc(F)c(C(F)(F)F)c4)c3)ncn2)n1` [Example 27-I], for which the GI50 was < 1 nM.
As for `CS(=O)(=O)N1CCc2c(ncnc2Oc2ccc3c(ccn3C(=O)Nc3cccc(C(F)(F)F)c3)c2)C1` [Example 35, 5-(7-Methanesulfonyl-5,6,7,8-tetrahydro-pyrido[3,4-d]pyrimidin-4-yloxy)-indole-1-carboxylic acid (3-trifluoromethyl-phenyl)-amide], the GI50 is 13 nM.
As for `Cc1cc2cc(Oc3ncnc4c3CCNC4)ccc2n1C(=O)Nc1cccc(C(F)(F)F)c1` [Example 33-L], the GI50 turned out to be 87 nM.
Turning to `CNC(=O)C1Cc2c(ncnc2Oc2ccc3c(ccn3C(=O)Nc3cc(C4CC4)on3)c2)CN1` (racemic) [Example 148-G, (±)-4-[1-(5-Cyclopropyl-isoxazol-3-ylcarbamoyl)-1H-indol-5-yloxy]-5,6,7,8-tetrahydro-pyrido[3,4-d]pyrimidine-6-carboxylic acid methylamide], the GI50 was 88 nM.
As for `O=C(Nc1ccc(F)c(C(F)(F)F)c1)n1ccc2cc(Oc3ncnc4c3CCNC4)ccc21` [Example 33-D], the GI50 worked out at 189 nM.
In the case of `CCN(CC)CCC(=O)N1CCc2c(ncnc2Oc2ccc3c(ccn3C(=O)Nc3cccc(C(F)(F)F)c3)c2)C1` [Example 40, 5-[7-(3-Diethylamino-propionyl)-5,6,7,8-tetrahydro-pyrido[3,4-d]pyrimidin-4-yloxy]-indole-1-carboxylic acid (3-trifluoromethyl-phenyl)-amide], the GI50 was 13 nM.
For the molecule `CN1Cc2ncnc(Oc3ccc4c(ccn4C(=O)Nc4cccc(C(F)(F)F)c4)c3)c2C1` [Example 63-A, 5-(6-methyl-6,7-dihydro-5H-pyrrolo[3,4-d]pyrimidin-4-yloxy)-indole-1-carboxylic acid (3-trifluoromethyl-phenyl)-amide], the GI50 is 8 nM.
In the case of `CS(=O)(=O)NC1CCN(Cc2cc(Oc3ccc4c(ccn4C(=O)Nc4cccc(C(F)(F)F)c4)c3)ncn2)CC1` [Example 39, 5-[6-(4-Methanesulfonylamino-piperidin-1-ylmethyl)-pyrimidin-4-yloxy]-indole-1-carboxylic acid (3-trifluoromethyl-phenyl)-amide] it was 2 nM.
Turning to `CC(C)c1cc(NC(=O)n2ccc3cc(Oc4cc(CNC5CC5)ncn4)ccc32)n[nH]1` [Example 137-I], the GI50 was found to be 100 nM.

For the origin of these results see US8242125B2, “Heterobicyclic carboxamides as inhibitors for kinases” (Novartis AG, priority 2008, dated 2012).
